Reference: US20050038125A1, “Method for the treatment of arthritis and pain” (priority 2003, published 2005)
One block for each molecule: values may come before it.

Tests used:
[1] = test system: PGE2 production in mouse whole blood; assay: LPS stimulated PGE2 production by mouse whole blood; type: cell-based
Protocol: Murine blood (C57/b16 male) was collected in heparinized collection tubes. The blood was diluted 0.5 times with cell culture medium without serum. 150 μl diluted blood was transferred into a 96-well microtiterplate. Silbinol™ was dissolved in DMSO and subsequently further diluted before adding to the cells in a concentration range of 0-25-50 μg/ml. Total amount of DMSO in the well was 0.1% DMSO. After 1 hour of preincubation of the mixture of blood cells and Silbinol™ or blood cells and 100 μM Ibuprofen™ at 37° C. in a humidified atmosphere containing 5% CO2, 1 μg/ml LPS was added and incubated for another 20 hours. Plates were centrifuged (5 minutes, 1200 rpm, SorvallRT7™) and supernatants are harvested and stored at −80° C. for further analysis.
PGE2 in the thawed supernatants was determined using the commercial enzyme immunoassay of Biotrak™ (Biotrak Amersham, Buckinghamshire, UK) according to the manufacturer's protocol 2.

hPBMCs = assay: Metabolic activity of PBMCs (succinate dehydrogenase activity); type: cell-based, human; details: lower dose range (Table 4), compared with PGE2 inhibition
Protocol: Peripheral Blood Mononuclear Cells (PBMCs) isolated from buffy coats of human blood from 3 healthy donors were stored in liquid nitrogen using standard procedures. For each experiment, PBMCs were thawed, transferred into a 50 ml centrifuge tube (BD Falcon, Erembodegem Aalst, Belgium) and cell culture medium (RPNI-1640 containing 25 mM HEPES and 2 mM L-glutamine (Life-Technologies, Merelbeke, Belgium) and further enriched with 10% heat inactivated fetal calf serum (^hiFCS), 120 U/ml penicillin/streptomycin and 1.2 mM sodium pyruvate) was added in a drop-wise fashion. Subsequently cells were centrifuged for 5 minutes at 1200 rpm (Sorvall RT7™). Cells were washed with cell culture medium (two times) and counted using a coulter counter (Beckman Coulter, Fullerton, Calif., USA). Parallel, a microscopic viability check using trypan blue is performed. PBMCs were pipetted into a 96-well flat bottom microtiterplate (BD Falcon, Brembodegem Aalst, Belgium), 1.5×10^5 cells per well. […] Metabolic activity of the PBMCs with and without the presence of test compound was determined using the succinate dehydrogenase activity.

[2] = test system: PGE2 production by hPBMCs; assay: PGE2 production by LPS stimulated hPBMCs (enzyme immunoassay); type: cell-based, human; details: for PGE2 production / effect on PGE2 production by hPBMCs (in words): after LPS stimulation; for IC50: Homo sapiens, read-out: estimated IC50 (PGE2 production by hPBMCs after LPS stimulation)
Protocol: Peripheral Blood Mononuclear Cells (PBMCs) isolated from buffy coats of human blood from 3 healthy donors were stored in liquid nitrogen using standard procedures. For each experiment, PBMCs were thawed, transferred into a 50 ml centrifuge tube (BD Falcon, Erembodegem Aalst, Belgium) and cell culture medium (RPNI-1640 containing 25 mM HEPES and 2 mM L-glutamine (Life-Technologies, Merelbeke, Belgium) and further enriched with 10% heat inactivated fetal calf serum (^hiFCS), 120 U/ml penicillin/streptomycin and 1.2 mM sodium pyruvate) was added in a drop-wise fashion. Subsequently cells were centrifuged for 5 minutes at 1200 rpm (Sorvall RT7™). Cells were washed with cell culture medium (two times) and counted using a coulter counter (Beckman Coulter, Fullerton, Calif., USA). Parallel, a microscopic viability check using trypan blue is performed. PBMCs were pipetted into a 96-well flat bottom microtiterplate (BD Falcon, Brembodegem Aalst, Belgium), 1.5×10^5 cells per well. Pterostilbene (Chromadex, Santa Anna, Calif., USA), Silbinol™ (Pterocarpus marsupium plant extract containing at least 5 wt. % pterostilbene based on dried weight; Sabinsa Corporation, Piscataway, USA) and resveratrol (Sigma, St. Louis, USA) were dissolved in dimethylsulfoxide (DMSO) and subsequently further diluted in cell culture medium and added to the cells in a concentration range (see below). DMSO concentration in the wells was 0.1%. Subsequently the cells were incubated for 1 hour at 37° C. in a humidified atmosphere containing 5% CO2. After 1 hour, lipopolysaccharide (LPS, E. Coli […], […]) was added and the cells were incubated for 20 hours at 37° C. in a humidified atmosphere containing 5% CO2. The supernatants were harvested 20 hours after incubation and stored at −80° C. until further analysis. Metabolic activity of the PBMCs with and without the presence of test compound was determined using the succinate dehydrogenase activity.
Concentrations of 3.12, 6.25, 12.5, 25 and 50 μg/ml of either Pterostilbene or Silbinol™ were tested to find the dose range of inhibitory activity (Table 1 and 2). Following the determination of the dose range with PGE2 production inhibitory activity, concentrations of 0, 2, 4, 8, 16 and 32 μg/ml Silbinol™ (Table 3) and 0, 0.037, 0.11, 0.33, 1 and 3 μM pterostilbene (Table 4) were tested.
For comparative purposes, the effects 0, 0.33, 1, 3, 9 and 27 μM resveratrol on PGE2 production by hPBMCs was determined (Table 5).
PGE2 in the thawed supernatants was measured using a commercial enzyme immunoassay (Biotrak Amersham, Buckinghamshire, UK) according to the manufacturer's protocol 2.

Compound: CC(C)Cc1ccc(C(C)C(=O)O)cc1 (stereo not shown) [Ibuprofen]
PGE2 production ([1]; 100 μM, LPS stimulated mouse whole blood): 1709 pg/mL
effect on PGE2 production in mouse whole blood (in words) ([1]; LPS stimulated): inhibit PGE2 production

IC50 [2]: 830 nM
Compound: COc1cc(C=Cc2ccc(O)cc2)cc(OC)c1 [Pterostilbene, 4′-hydroxy-3,5-dimethoxystilbene]
metabolic activity of hPBMCs (hPBMCs): decrease, however to a much lesser extent
PGE2 production ([2]; 0.037 μM, Mean of donors A-C): 5434 pg/mL
PGE2 production ([2]; 0.037 μM, donor A): 5957 pg/mL
PGE2 production ([2]; 0.037 μM, donor B): 7788 pg/mL
PGE2 production ([2]; 0.037 μM, donor C): 2574 pg/mL
PGE2 production ([2]; 0.11 μM, Mean of donors A-C): 4494 pg/mL
PGE2 production ([2]; 0.11 μM, donor A): 5305 pg/mL
PGE2 production ([2]; 0.11 μM, donor B): 6930 pg/mL
PGE2 production ([2]; 0.11 μM, donor C): 1248 pg/mL
PGE2 production ([2]; 0.33 μM, Mean of donors A-C): 2589 pg/mL
PGE2 production ([2]; 0.33 μM, donor A): 2786 pg/mL
PGE2 production ([2]; 0.33 μM, donor B): 4782 pg/mL
PGE2 production ([2]; 0.33 μM, donor C): 199 pg/mL
PGE2 production ([2]; 1 μM, Mean of donors A-C): 1879 pg/mL
PGE2 production ([2]; 1 μM, donor A): 2067 pg/mL
PGE2 production ([2]; 1 μM, donor B): 3570 pg/mL
PGE2 production ([2]; 3 μM, Mean of donors A-C): 691 pg/mL
PGE2 production ([2]; 3 μM, donor A): 280 pg/mL
PGE2 production ([2]; 3 μM, donor B): 1794 pg/mL
PGE2 production ([2]; 3.12 μg/ml, Mean of donors A-C): 39 pg/mL
PGE2 production ([2]; 3.12 μg/ml, donor B): 117 pg/mL
PGE2 production ([2]; 6.25 μg/ml, Mean of donors A-C): 9 pg/mL
PGE2 production ([2]; 6.25 μg/ml, donor A): 28 pg/mL
PGE2 production ([2]; 12.5 μg/ml, Mean of donors A-C): 2 pg/mL
PGE2 production ([2]; 12.5 μg/ml, donor B): 5 pg/mL
PGE2 production ([2]; 25 μg/ml, Mean of donors A-C): 44 pg/mL
PGE2 production ([2]; 25 μg/ml, donor A): 63 pg/mL
PGE2 production ([2]; 25 μg/ml, donor B): 69 pg/mL
PGE2 production ([2]; 50 μg/ml, Mean of donors A-C): 269 pg/mL
PGE2 production ([2]; 50 μg/ml, donor A): 584 pg/mL
PGE2 production ([2]; 50 μg/ml, donor B): 222 pg/mL
effect on PGE2 production by hPBMCs (in words) [2]: inhibit PGE2 production

IC50 [2]: 4700 nM
Compound: Oc1ccc(C=Cc2cc(O)cc(O)c2)cc1 [Resveratrol, resveratrol, reference compound]
PGE2 production ([2]; Table 5, 0.33 μM, Mean of donors A-C): 6717 pg/mL
PGE2 production ([2]; Table 5, 0.33 μM, donor A): 8380 pg/mL
PGE2 production ([2]; Table 5, 0.33 μM, donor B): 8060 pg/mL
PGE2 production ([2]; Table 5, 0.33 μM, donor C): 3710 pg/mL
PGE2 production ([2]; Table 5, 1 μM, Mean of donors A-C): 5601 pg/mL
PGE2 production ([2]; Table 5, 1 μM, donor A): 6835 pg/mL
PGE2 production ([2]; Table 5, 1 μM, donor B): 7369 pg/mL
PGE2 production ([2]; Table 5, 1 μM, donor C): 2597 pg/mL
PGE2 production ([2]; Table 5, 3 μM, Mean of donors A-C): 2916 pg/mL
PGE2 production ([2]; Table 5, 3 μM, donor A): 3120 pg/mL
PGE2 production ([2]; Table 5, 3 μM, donor B): 5449 pg/mL
PGE2 production ([2]; Table 5, 3 μM, donor C): 178 pg/mL
PGE2 production ([2]; Table 5, 9 μM, Mean of donors A-C): 1383 pg/mL
PGE2 production ([2]; Table 5, 9 μM, donor A): 1213 pg/mL
PGE2 production ([2]; Table 5, 9 μM, donor B): 2936 pg/mL
PGE2 production ([2]; Table 5, 27 μM, Mean of donors A-C): 1090 pg/mL
PGE2 production ([2]; Table 5, 27 μM, donor A): 913 pg/mL
PGE2 production ([2]; Table 5, 27 μM, donor B): 2355 pg/mL
effect on PGE2 production by hPBMCs (in words) [2]: inhibit PGE2 production
